Tests used:
Test in all cases: relative viability (nuclei count vs DMSO), 5 days (fraction); higher = more cells survive
Doxorubicin + Phenformin = compound: COc1cccc2c1C(=O)c1c(O)c3c(c(O)c1C2=O)C[C@@](O)(C(=O)CO)C[C@@H]3O[C@H]1C[C@H](N)[C@H](O)[C@H](C)O1 [Doxorubicin] + N=C(N)NC(=N)NCCc1ccccc1 [Phenformin] (partner 250 µM)
Summary of the method: (§1)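 Lung cancer cell lines in 1536-well plates got either a single drug or a fixed anchor-drug dose together with five library-drug doses (not always all listed) in √10 steps, by pin tool, on the day after seeding. Nuclei were counted after 5 days, and relative viability is the treated-to-vehicle ratio of nuclei counts. Values are medians of duplicate plates.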

BAY61-3606 + Vorinostat = compound: COC1=C(C=C(C=C1)C2=CC3=NC=CN3C(=N2)NC4=C(C=CC=N4)C(=O)N)OC [BAY61-3606] + O=C(CCCCCCC(=O)Nc1ccccc1)NO [Vorinostat] (partner 1 µM)
Summary of the method: as §1

Doxorubicin + AZD7762 = compound: COc1cccc2c1C(=O)c1c(O)c3c(c(O)c1C2=O)C[C@@](O)(C(=O)CO)C[C@@H]3O[C@H]1C[C@H](N)[C@H](O)[C@H](C)O1 [Doxorubicin] + NC(=O)Nc1cc(-c2cccc(F)c2)sc1C(=O)N[C@H]1CCCNC1 [AZD7762] (partner 0.2 µM)
Summary of the method: as §1

BAY61-3606 + Bortezomib = compound: COC1=C(C=C(C=C1)C2=CC3=NC=CN3C(=N2)NC4=C(C=CC=N4)C(=O)N)OC [BAY61-3606] + CC(C)C[C@H](NC(=O)[C@H](Cc1ccccc1)NC(=O)c1cnccn1)B(O)O [Bortezomib] (partner 0.002 µM)
Summary of the method: as §1

Cell Line	relative viability (Doxorubicin + Phenformin; first compound 0.001 µM)	relative viability (Doxorubicin + Phenformin; first compound 0.003162 µM)	relative viability (Doxorubicin + Phenformin; first compound 0.01 µM)	relative viability (Doxorubicin + Phenformin; first compound 0.03162 µM)	relative viability (Doxorubicin + Phenformin; first compound 0.1 µM)	relative viability (BAY61-3606 + Vorinostat; first compound 0.02 µM)	relative viability (BAY61-3606 + Vorinostat; first compound 0.06325 µM)	relative viability (BAY61-3606 + Vorinostat; first compound 0.2 µM)	relative viability (BAY61-3606 + Vorinostat; first compound 0.6325 µM)	relative viability (BAY61-3606 + Vorinostat; first compound 2 µM)	relative viability (Doxorubicin + AZD7762; first compound 0.001 µM)	relative viability (Doxorubicin + AZD7762; first compound 0.003162 µM)	relative viability (Doxorubicin + AZD7762; first compound 0.01 µM)	relative viability (Doxorubicin + AZD7762; first compound 0.03162 µM)	relative viability (Doxorubicin + AZD7762; first compound 0.1 µM)	relative viability (BAY61-3606 + Bortezomib; first compound 0.02 µM)	relative viability (BAY61-3606 + Bortezomib; first compound 0.06325 µM)	relative viability (BAY61-3606 + Bortezomib; first compound 0.2 µM)	relative viability (BAY61-3606 + Bortezomib; first compound 0.6325 µM)	relative viability (BAY61-3606 + Bortezomib; first compound 2 µM)
NCI-H1623	0.533	0.561	0.575	0.528	0.502	–	–	–	–	–	–	–	–	–	–	–	–	–	–	–
NCI-H1395	0.43	0.44	0.447	0.414	0.449	0.736	0.705	0.595	0.705	0.706	0.414	0.435	0.421	0.347	0.377	–	–	–	–	–
SK-LU-1	0.367	0.558	0.449	0.226	0.173	0.695	0.83	0.755	0.679	0.504	–	–	–	–	–	1.38	1.15	1.12	1.21	0.961
NCI-H1650	0.365	0.35	0.222	0.126	0.11	0.611	0.551	0.5	0.665	0.61	–	–	–	–	–	0.24	0.201	0.183	0.356	0.201
LK-2	0.31	0.328	0.388	0.33	0.351	0.264	0.297	0.301	0.327	0.306	0.354	0.578	0.274	0.341	0.251	–	–	–	–	–
NCI-H1563	0.618	0.573	0.546	0.524	0.501	–	–	–	–	–	–	–	–	–	–	0.84	0.803	0.948	0.988	0.631
COR-L23	0.422	0.501	0.43	0.224	0.131	0.564	0.5	0.511	0.491	0.323	–	–	–	–	–	1.06	1.12	0.934	0.962	0.714
NCI-H522	0.595	0.622	0.585	0.543	0.645	0.896	0.869	0.839	0.733	0.661	0.7	0.745	0.967	0.656	0.918	–	–	–	–	–
SW 1573	0.337	0.355	0.216	0.111	0.0738	0.817	0.643	0.578	0.815	0.344	–	–	–	–	–	1.16	1.18	0.971	1.02	0.66
SW 900	0.704	0.685	0.607	0.328	0.138	0.457	–	–	0.564	0.439	–	0.647	0.604	0.45	0.358	–	–	–	–	–
A549	–	0.142	0.149	0.137	0.0431	–	–	–	–	–	–	–	–	–	–	–	–	–	–	–
COR-L 105	0.57	0.533	0.434	0.295	0.286	0.938	0.947	0.734	0.791	0.746	–	–	–	–	–	0.85	0.688	0.622	0.807	0.388
Calu-6	–	–	–	–	–	–	–	–	–	–	–	–	–	–	–	1.12	1.15	1.06	1.01	0.831
NCI-H2009	0.483	0.482	0.481	0.414	0.275	0.703	0.833	0.714	0.734	0.697	–	–	–	–	–	1.07	1.02	0.961	1.02	0.83
SK-MES-1	0.655	0.648	0.612	0.285	0.222	1.14	1.13	1.05	1.11	0.86	–	–	–	–	–	–	–	–	–	–
NCI-H2170	0.379	0.388	0.411	0.485	0.432	0.835	0.752	0.842	0.83	0.739	0.825	0.95	0.792	0.626	0.961	–	–	–	–	–
NCI-H1648	–	–	–	–	–	0.797	0.44	0.648	–	0.706	0.762	0.524	0.741	0.843	0.654	–	–	–	–	–
EBC-1	–	–	–	–	–	–	–	–	–	–	–	–	–	–	–	0.571	0.632	0.616	0.569	0.459
NCI-H520	0.626	0.531	0.611	0.465	0.347	0.768	0.861	0.624	0.71	0.638	–	–	–	–	–	1.1	0.602	0.843	0.84	0.433
NCI-H1299	–	–	–	–	–	–	–	–	–	–	–	–	–	–	–	1.08	1.03	1.02	1.04	0.991
NCI-H2228	0.284	0.312	0.242	0.107	0.118	0.713	0.594	0.663	0.634	0.571	–	–	–	–	–	1.32	1.17	0.916	1.22	0.567
IA-LM	–	–	–	–	–	0.947	0.851	0.894	1.25	0.96	–	–	–	–	–	0.912	–	0.917	0.797	0.68
NCI-H661	0.27	0.284	0.265	0.244	0.238	0.78	0.825	0.773	0.864	0.779	–	–	–	–	–	0.896	0.713	0.767	0.724	0.556
NCI-H2023	0.431	0.398	0.321	0.126	0.0808	0.856	0.671	0.638	0.82	0.468	–	–	–	–	–	1.1	1.08	1.09	1.24	0.735
